By IC50 is commonly meant the concentration that inhibits the measured activity by half.

Series [1] can be described thus: DPPH radical scavenging ability. The series is classed as biochemical. The settings on record: for BHT-Relative Antioxidant Ability (%) DPPH Method: sample concentration 500 μM, 50 minutes at room temperature, absorbance at 517 nm, relative to 500 μM BHT; for Radical scavenging ability (DPPH) compared in words with BHT or Pro-His-His: 500 μM. The text has this: (§1) The antioxidant action of a peptide may be determined by a known method such as DPPH method or β-carotene bleaching method (see, e.g., Chen, H M., Muramoto, K., Yamauchi, F., and Nokihara, K., J. Agric. Food Chem., 44, 2619-2623, 1996. Antioxidant Activity of Designed Peptides Based on the Antioxidative Peptide Isolated from Digests of a Soybean Protein). DPPH method is to measure radical scavenging ability using 1,1-diphenyl-2-picrylhydrazyl (DPPH). […] In addition, the level of an antioxidant action can be evaluated by the degree of decrease of absorbance. β-carotene bleaching method is to calculate antioxidant ability of an analyte by autoxidizing a mixture of β-carotene, linoleic acid and the analyte and measuring suppression of β-carotene oxidization. […] In addition, the level of an antioxidant action can be evaluated by the degree of decrease of absorbance. Such known evaluation methods as described above reflect a part of antioxidant mechanisms which act in a living body in parallel.
Next, DPPH was dissolved in ethanol to prepare 10 mL of 0.1 mM DPPH-ethanol solution, and 0.15 mL of this DPPH-ethanol solution and 0.15 mL of the above-prepared undiluted solution were mixed and stirred (the sample concentration: 500 μM). The reaction was allowed to proceed for 50 minutes at room temperature, and the absorbance at 517 nm wavelength was measured with a UV-VIS spectrophotometer (JASCO V-570). For blanks, a blank solution was prepared using the same volume of ethanol instead of DPPH, and the absorbance of the blank solution was measured via the same reaction condition. For controls, a control solution was prepared using ethanol instead of sample solutions, and the absorbance of the control solution was measured via the same reaction condition.
The DPPH radical scavenging ability was calculated according to the following formula.
Radical Scavenging Ability AntOx(%)=(Acon−Asam)/Acon×100
Acon=The absorbance of the control after being left to stand for 50 minutes. Asam=The absorbance of the sample after being left to stand for 50 minutes.
(§2) The BHT-relative antioxidant ability was calculated according to the following formula.
BHT-Relative Antioxidant Ability(%)=[AntOx(%)]/[500 μM BHT(%)]×100
A general note: DPPH is a stable violet radical that fades when it is reduced.

Series [2] in a line: β-carotene bleaching method (carotene-linoleic acid autoxidation). It is filed as biochemical. The settings on record: for BHT-Relative Antioxidant Ability (%) β-Carotene Method: sample concentration 5 μM, 50 minutes at 50° C., absorbance at 492 nm, relative to 5 μM BHT; for Antioxidant ability (β-carotene method) compared in words with BHT or Pro-His-His: 5 μM.
Source text: as §1
β-carotene was dissolved in chloroform to prepare 1 mg/mL solution. Linoleic acid was dissolved in chloroform to prepare 0.1 g/mL solution. Tween 40 was dissolved in chloroform to prepare 0.2 g/mL solution. Into 100 mL recovery flasks, 0.15 mL of β-carotene solution in chloroform, 0.1 mL of linoleic acid solution in chloroform, and 0.3 mL of Tween 40 solution in chloroform were aliquoted, and the mixed solution was evaporated to dryness with an evaporator until the smell of chloroform was completely disappeared. The dried mixture was dissolved in 30 mL of pure water, and 2.7 mL of 0.2 M phosphate buffer (pH 6.8) was further added thereto, followed by gentle stirring to prepare carotene-linoleic acid solution. Next, the peptides obtained in Example 1 were dissolved in ethanol to prepare 1 mL of 0.05 mM peptide solutions, respectively.
Thereafter, 0.45 mL of carotene-linoleic acid solution and 0.05 mL of undiluted sample solution were mixed and stirred (sample concentration: 5 μM), and the reaction was allowed to proceed for 50 minutes at 50° C. Five minutes and 50 minutes after the start of the reaction, the absorbance at OD 492 nm was measured with a UV-VIS spectrophotometer. For blanks, a blank solution was prepared using the same volume of distilled water instead of carotene-linoleic acid solution, and the absorbance of the blank solution was measured via the same reaction condition. For controls, a control solution was prepared using ethanol instead of sample solutions, and the absorbance of the control solution was measured via the same reaction condition.
The antioxidant ability was calculated according to the following formula.
Antioxidant ability(%)=[1-−A5S−A50S)/(A5C−A50C)]×100
A5C=The absorbance of the control after 5-minute reaction. A5S=The absorbance of the sample after 5-minute reaction. A50C=The absorbance of the control after 50-minute reaction. A50S=The absorbance of the sample after 50-minute reaction.
as §2
BHT-Relative Antioxidant Ability(%)=[AntOx(%)]/[5 μM BHT(%)]×100

The test system of another series is ddY mice. In words: Acute dermal toxicity study of mimosine cream. The series is classed as in vivo. The settings on record: cream applied to shaved trunk twice a day for three days; skins surveyed at day 5. The method, then: Vegetable emulsified wax (emulsifying wax, Orangeflower Inc., ingredients: stearyl alcohol, polysorbate 60) and oil (edible olive oil, Ajinomoto Co., Inc.) were completely melted in hot water (50° C.). Warm water (ultrapure water) was added thereto, and the mixture was mixed. An aqueous solution of mimosine or mimosine-introduced peptide was added thereto, and the mixture was completely mixed up. The obtained mixture was stored at 4° C. until use in the animal experiment.
The left and right sides of the trunk of ddY mice (9-week-old, male, 6 mice in each group) were shaved with clippers under anesthesia with ether. […] Any special changes were not observed. […] Therefore, it is thought that mimosine and mimosine-introduced peptide can be utilized in the cosmetic field.

For the next series, the target named is Mushroom tyrosinase (Agaricus bisporus, UniProt C7FF04). Nature of the series: Tyrosinase inhibitory activity with L-DOPA as substrate. It is filed as biochemical. The settings on record: for IC50: pH 6.8, room temperature, absorbance at 475 nm for 60 seconds, read-out: IC50 for tyrosinase inhibition. The method, then:
Tyrosinase inhibitory activity of a peptide can be evaluated by a known method using tyrosinase and its substrate such as L-dihydroxyphenylalanine (L-DOPA) or L-tyrosine. Specific examples of the evaluation method are described in the Examples below. For example, a peptide whose tyrosinase inhibitory activity should be measured, tyrosinase, and its substrate are dissolved in phosphate buffer, respectively (the peptide and tyrosinase may be dissolved in the same solution). Immediately after mixing the three components, change in absorbance at 475 nm is measured with a spectrophotometer. Since melanin has an absorption maximum at 475 nm, absorbance at 475 nm increases if melanin is synthesized from L-DOPA by tyrosinase. […] Therefore, the tyrosinase inhibitory activity of a peptide can be evaluated based on the change in absorbance.
Mushroom tyrosinase (SIGMA-Aldrich, Missouri, USA)
L-DOPA (SIGMA-Aldrich, Missouri, USA)
50 mM Sodium phosphate buffer (pH 6.8)
Using 50 mM sodium phosphate buffer (pH 6.8), 5 mM L-DOPA solution, mushroom tyrosinase solution (2 units/μL) and 1 mM inhibitor stock solution (×10) were prepared.
Reaction Solution A (25 μL of 5 mM DOPA solution; 75 μL of 50 mM sodium phosphate buffer (pH 6.8)) and Reaction Solution B (25 μL of inhibitor stock solution; 12.5 μL of tyrosinase solution; 112.5 μL of 50 mM sodium phosphate buffer (pH 6.8)) were prepared in two Eppendorf tubes, respectively. Reaction Solutions A and B were mixed just before the measurement, and the absorbance at 475 nm wavelength was measured with a spectrophotometer (V-570, Jasco, Tokyo, Japan). The measurement was carried out for 60 seconds at room temperature, and the absorbance was recorded every 1 second. This operation was repeated 3 times for each sample concentration.
The tyrosinase activity ratio at each inhibitor concentration was calculated based on the control (tyrosinase alone) value, and IC50s for tyrosinase inhibition of the samples were calculated using Ngraph. The fitting formula below was used in the calculation.
y=a−(a−b)/(1+(x/c)̂d (a=Minimum value of y; b=Maximum value of y; c=[…]; d=Variable)

Sequence of Mushroom tyrosinase (G1K3P4 entry or part of it): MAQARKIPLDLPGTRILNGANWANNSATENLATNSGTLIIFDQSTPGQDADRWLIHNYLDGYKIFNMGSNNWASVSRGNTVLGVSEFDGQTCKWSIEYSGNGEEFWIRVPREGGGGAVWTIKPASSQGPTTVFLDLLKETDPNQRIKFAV
Sequence of Mushroom tyrosinase (C7FF04 1-392): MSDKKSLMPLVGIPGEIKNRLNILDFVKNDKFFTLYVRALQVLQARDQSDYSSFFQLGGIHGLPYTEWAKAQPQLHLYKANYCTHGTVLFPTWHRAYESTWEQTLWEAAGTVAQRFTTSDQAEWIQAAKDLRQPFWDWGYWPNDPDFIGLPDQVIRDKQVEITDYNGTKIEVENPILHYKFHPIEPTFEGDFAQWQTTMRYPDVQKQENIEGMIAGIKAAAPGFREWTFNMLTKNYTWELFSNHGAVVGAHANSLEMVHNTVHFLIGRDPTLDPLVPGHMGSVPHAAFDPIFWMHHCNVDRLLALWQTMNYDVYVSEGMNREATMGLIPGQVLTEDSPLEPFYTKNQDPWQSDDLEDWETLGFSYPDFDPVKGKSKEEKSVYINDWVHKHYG

Consider `Cc1cc(C(C)(C)C)c(O)c(C(C)(C)C)c1` [BHT, butylated hydroxytoluene, reference compound], for which the “BHT-Relative Antioxidant Ability (%) DPPH Method” value in series [1] is given as 100.00%. Moreover, the “BHT-Relative Antioxidant Ability (%) β-Carotene Method” value in series [2] came out at 100.00%.

As to `NC(Cn1ccc(=O)c(O)c1)C(=O)O` (stereo not drawn) [Mimosine], the “Acute dermal toxicity (skin condition)” value in the series with ddY mice was “neither mimosine nor a mimosine-introduced peptide has an acute dermal toxicity”.

With “Arg-His-Trp [Sample 5X, reference compound]”, the “BHT-Relative Antioxidant Ability (%) DPPH Method” value in series [1] was determined as 11.26%. The “BHT-Relative Antioxidant Ability (%) β-Carotene Method” value in series [2] amounted to 41.37%.

For Leu-His-Mim [Sample 8], the “BHT-Relative Antioxidant Ability (%) DPPH Method” value in series [1] is 26.45%. Moreover, in series [2], the “BHT-Relative Antioxidant Ability (%) β-Carotene Method” value was 77.79%.

On to “Leu-His-Trp [Sample 8X, reference compound]”, for which the “BHT-Relative Antioxidant Ability (%) DPPH Method” value in series [1] is reported as 41.92%. For the same molecule, in series [2], the “BHT-Relative Antioxidant Ability (%) β-Carotene Method” value worked out at 46.79%.

Leu-Trp-Mim [Sample 9]: the “BHT-Relative Antioxidant Ability (%) DPPH Method” value in series [1] is 41.02%. Moreover, in series [2], the “BHT-Relative Antioxidant Ability (%) β-Carotene Method” value is 77.32%.

Consider “Leu-Trp-Trp [Sample 6X, reference compound]”, for which the “BHT-Relative Antioxidant Ability (%) DPPH Method” value in series [1] is 73.27%. Besides, the “BHT-Relative Antioxidant Ability (%) β-Carotene Method” value in series [2] worked out at 28.28%.

For Mim-Arg-Tyr [Sample 2], the “BHT-Relative Antioxidant Ability (%) DPPH Method” value in series [1] is recorded as 77.89%. Besides, in series [2], the “BHT-Relative Antioxidant Ability (%) β-Carotene Method” value stood at 66.77%.

Mim-His-Trp [Sample 5]: in series [1], the “Radical scavenging ability (DPPH) compared in words with BHT or Pro-His-His” value is “at the same level as or higher than BHT” and the “BHT-Relative Antioxidant Ability (%) DPPH Method” value was found to be 99.06%. For the same molecule, in series [2], the “Antioxidant ability (β-carotene method) compared in words with BHT or Pro-His-His” value was “at the same level as BHT” and the “BHT-Relative Antioxidant Ability (%) β-Carotene Method” value is on record as 92.66%. On Mushroom tyrosinase, the “Tyrosinase inhibitory activity compared in words with mimosine or kojic acid” value is reported as “higher than kojic acid” and the IC50 turned out to be 3.02 µM.

Regarding Mim-His-Tyr [Sample 3], in series [1], the “BHT-Relative Antioxidant Ability (%) DPPH Method” value amounted to 84.88%. Further, in series [2], the “Antioxidant ability (β-carotene method) compared in words with BHT or Pro-His-His” value is recorded as “at the same level as BHT” and the “BHT-Relative Antioxidant Ability (%) β-Carotene Method” value is 95.80%. The IC50 at Mushroom tyrosinase is 8.84 µM.

Turning to Mim-Pro-His-His [Sample 1], in series [1], the “Radical scavenging ability (DPPH) compared in words with BHT or Pro-His-His” value was “at the same level as or higher than BHT” and the “BHT-Relative Antioxidant Ability (%) DPPH Method” value is 111.67%. Also, in series [2], the “Antioxidant ability (β-carotene method) compared in words with BHT or Pro-His-His” value is on record as “at the same level as BHT” and the “BHT-Relative Antioxidant Ability (%) β-Carotene Method” value turned out to be 93.86%. The half-inhibitory concentration (IC50) at Mushroom tyrosinase was found to be 16.4 µM.

Consider Mim-Trp-Trp [Sample 6], for which, in series [1], the “Radical scavenging ability (DPPH) compared in words with BHT or Pro-His-His” value is on record as “at the same level as or higher than BHT” and the “BHT-Relative Antioxidant Ability (%) DPPH Method” value is recorded as 117.34%. Also, the “BHT-Relative Antioxidant Ability (%) β-Carotene Method” value in series [2] is recorded as 72.56%. Further, the half-inhibitory concentration (IC50) on Mushroom tyrosinase came out at 28.2 µM.

Consider MimLys-Tyr [Sample 4], for which, in series [1], the “BHT-Relative Antioxidant Ability (%) DPPH Method” value is recorded as 75.33%. Besides, the “BHT-Relative Antioxidant Ability (%) β-Carotene Method” value in series [2] is recorded as 81.96%.

On to “Pro-His-His [Sample 1X, reference compound]”, for which the “BHT-Relative Antioxidant Ability (%) DPPH Method” value in series [1] was determined as 23.01%. For the same molecule, the “BHT-Relative Antioxidant Ability (%) β-Carotene Method” value in series [2] came to 63.00%.

Turning to Pro-His-Mim [Sample 10], the “BHT-Relative Antioxidant Ability (%) DPPH Method” value in series [1] is recorded as 26.45%. The “BHT-Relative Antioxidant Ability (%) β-Carotene Method” value in series [2] was 79.55%.

For the molecule “Pro-His-Tyr [Sample 3X, reference compound]”, the “BHT-Relative Antioxidant Ability (%) DPPH Method” value in series [1] worked out at 9.63%. Also, in series [2], the “BHT-Relative Antioxidant Ability (%) β-Carotene Method” value came out at 33.56%.

Turning to Pro-Mim-His [Sample 7], the “BHT-Relative Antioxidant Ability (%) DPPH Method” value in series [1] is reported as 37.04%. Also, the “BHT-Relative Antioxidant Ability (%) β-Carotene Method” value in series [2] worked out at 73.07%.

In the case of “Tyr-Arg-Tyr [Sample 2X, reference compound]”, the “BHT-Relative Antioxidant Ability (%) DPPH Method” value in series [1] amounted to 11.31%. In series [2], the “BHT-Relative Antioxidant Ability (%) β-Carotene Method” value is reported as 7.78%.

On to “Tyr-Lys-Tyr [Sample 4X, reference compound]”, for which the “BHT-Relative Antioxidant Ability (%) DPPH Method” value in series [1] came out at 9.55%. In series [2], the “BHT-Relative Antioxidant Ability (%) β-Carotene Method” value came to 18.88%.

These data come from US20110319347A1, “ANTIOXIDANT AGENT” (priority 2009, published 2011).
